Assay results from publication PMC7057962, “The Two-Species Model of transketolase explains donor substrate-binding, inhibition and heat-activation” (Scientific Reports, 2020).
Like-named read-outs stand apart in the source and are kept apart here.

Tests used:
[1] = molecular target: T1, E. coli transketolase (TK; TKhigh / TKlow forms) (Escherichia coli, UniProt P27302); assay: intrinsic fluorescence quenching (ex […] nm, em […] nm), double-Hill fit; type: binding; conditions: read-out: Kd(high)^HPA
T1 construct: gene tktA; N-terminal His6 tag, expressed in E. coli XL10-gold from pQR791; homodimer; purified sample is a mix of TKhigh (oxidised) and TKlow subunits

[2] = molecular target: T2, E. coli transketolase (TK; TKhigh / TKlow forms) (Escherichia coli, UniProt P27302, D469T/R520Q/S385Y); assay: as above; type: binding
T2 construct: gene tktA; N-terminal His6 tag, expressed in E. coli XL10-gold from pQR791; homodimer; purified sample is a mix of TKhigh (oxidised) and TKlow subunits
T2 sequence (P27302 whole entry S385Y/D469T/R520Q): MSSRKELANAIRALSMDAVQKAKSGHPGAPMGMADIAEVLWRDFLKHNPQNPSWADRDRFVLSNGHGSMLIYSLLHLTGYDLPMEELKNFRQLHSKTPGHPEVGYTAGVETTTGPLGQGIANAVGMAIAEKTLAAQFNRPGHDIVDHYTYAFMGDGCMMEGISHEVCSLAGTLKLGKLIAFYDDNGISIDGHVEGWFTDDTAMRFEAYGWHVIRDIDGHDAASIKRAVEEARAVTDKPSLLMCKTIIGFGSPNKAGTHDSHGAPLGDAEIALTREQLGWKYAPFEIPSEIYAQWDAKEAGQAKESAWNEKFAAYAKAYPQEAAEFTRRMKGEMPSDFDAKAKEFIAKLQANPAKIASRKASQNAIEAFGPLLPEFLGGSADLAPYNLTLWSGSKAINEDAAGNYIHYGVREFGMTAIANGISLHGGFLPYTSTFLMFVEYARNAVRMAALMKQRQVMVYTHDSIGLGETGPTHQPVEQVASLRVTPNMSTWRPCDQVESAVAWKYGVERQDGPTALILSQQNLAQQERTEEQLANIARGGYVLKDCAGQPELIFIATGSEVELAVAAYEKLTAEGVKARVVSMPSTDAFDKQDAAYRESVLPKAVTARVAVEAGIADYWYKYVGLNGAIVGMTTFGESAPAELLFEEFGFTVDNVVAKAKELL

T1 sequence (P27302 whole entry): as the sequence (P27302 whole entry S385Y/D469T/R520Q) above, with Y385S, T469D, Q520R counted along it

Compound | Kd [1] [mM] | Kd ([2]; read-out: Kd(high)^HPA) [mM] | Kd ([2]; read-out: Kd(high)^TPP) [mM]
O=C(O)C(=O)CO [HPA, β-hydroxypyruvate] | 3.42 ± 0.45 | 3.61 ± 0.31 | –
Cc1ncc(C[n+]2csc(CCO[P@](=O)(O)OP(=O)(O)O)c2C)c(N)n1 [TPP, thiamine pyrophosphate] | – | – | 0.0066 ± 0.00164
